The text below walks through data of patent publication US8912184B1, “Therapeutic and diagnostic methods” (Alzheimer's Institute of America, Inc., priority 2010, dated 2014).

Read-outs that look alike come from different tables or passages of the source.

The assay has as its system HCT116 cells. Kind of assay: Nicotinic Acid Rescue Cytotoxicity Assay, first method: cytotoxicity to HCT116 cells in presence and absence of 10 μM nicotinic acid. In kind it is cell-based. Conditions: Homo sapiens, HCT-116, 72 h.
The mark [1] stands for this setting: absence of nicotinic acid, read-out: HCT116 72 h cytotoxicity.
[2] abbreviates: presence of 10 μM nicotinic acid, read-out: HCT116 72 h cytotoxicity with 10 μM Nicotinic Acid.

Turning to `O=C(NCCCCCOc1ccccc1-c1ccccc1)NCc1cccnc1` [Example R85, 1-[5-(Biphenyl-2-yloxy)pentyl]-3-(pyridin-3-ylmethyl)urea], the IC50 reads like this: under setting [1], 1.3 nM; under setting [2], more than 5000 nM.

As for `CCn1cc(-c2ccccc2S(=O)(=O)Nc2ccc(NC(=O)NCc3cccnc3)cc2)cn1` [Example R89, 2-(1-Ethyl-1H-pyrazol-4-yl)-N-(4-{[(pyridin-3-ylmethyl)carbamoyl]amino}phenyl)benzene-sulfonamide], the IC50 is, setting by setting: under setting [1], 34.2 nM; under setting [2], more than 5000 nM.

Turning to `CCOc1ccccc1NCC(=O)Nc1ccc(C(=O)NCc2cccnc2)cc1` [Example R21, 4-{[N-(2-Ethoxyphenyl)glycyl]amino}-N-(pyridin-3-ylmethyl)benzamide], the IC50 was 435 nM under setting [1] and more than 50000 nM under setting [2].

As for `O=C(NCc1cccnc1)Nc1ccc(NS(=O)(=O)c2cc(C(F)(F)F)ccc2-c2ccccc2)cc1` [Example R60, N-(4-{[(pyridin-3-ylmethyl)carbamoyl]amino}phenyl)-4-(trifluoromethyl)biphenyl-2-sulfonamide], the IC50 is 3.7 nM under setting [1] and more than 5000 nM under setting [2].

Take `Cc1cnccc1N/C(=N/C#N)NCCCCCCOc1ccc(Cl)cc1` [Example R38, 1-[6-(4-Chlorophenoxy)hexyl]-2-cyano-3-(3-methylpyridin-4-yl)guanidine]: the IC50 runs as follows: under setting [1], 1.4 nM; under setting [2], more than 10000 nM.

Turning to `O=C(NCc1cccnc1)Nc1ccc(NS(=O)(=O)c2ccc([N+](=O)[O-])c(C(F)(F)F)c2)cc1` [Example R50, 4-Nitro-N-(4-{[(pyridin-3-ylmethyl)carbamoyl]amino}phenyl)-3-(trifluoromethyl)benzenesulfonamide], the IC50 is, setting by setting: under setting [1], 6.7 nM; under setting [2], more than 10000 nM.

`C#CCN(Cc1ccccc1C(F)(F)F)c1ccc(C(=O)NCc2cccnc2)cc1` [Example R10, 4-{Prop-2-yn-1-yl[2-(trifluoromethyl)benzyl]amino}-N-(pyridin-3-ylmethyl)benzamide]: the IC50 is, setting by setting: under setting [1], 1110 nM; under setting [2], more than 5000 nM.

With `O=C(NCc1cccnc1)Nc1ccc(NS(=O)(=O)c2ccc(Cl)cc2Cl)cc1` [Example R75, 2,4-dichloro-N-(4-{[(pyridin-3-ylmethyl)carbamoyl]amino}phenyl)benzene-sulfonamide], the IC50 under setting [1] amounted to 30.3 nM and the IC50 under setting [2] is more than 5000 nM.

Regarding `O=C(NCc1cccnc1)c1ccc(OCc2ccccc2-c2cnc3ccccc3c2)cc1` [Example R48, N-(Pyridin-3-ylmethyl)-4-{[2-(quinolin-3-yl)benzyl]oxy}benzamide], the IC50 runs as follows: under setting [1], 38.8 nM; under setting [2], more than 10000 nM.

On to `O=C(NCc1cccnc1)Nc1ccc(NS(=O)(=O)c2ccccc2Br)cc1` [Example R33, 2-Bromo-N-(4-{[(pyridin-3-ylmethyl)carbamoyl]amino}phenyl)benzene-sulfonamide], for which the IC50 is, setting by setting: under setting [1], 4.6 nM; under setting [2], more than 50000 nM.

Take `N#C/N=C(\NCCCCCCOc1ccc(Cl)cc1)Nc1ccc(Br)nc1` [Example R36, 1-(6-Bromopyridin-3-yl)-2-[6-(4-chlorophenoxy)hexyl]-3-cyanoguanidine]: the IC50 under setting [1] worked out at 6000 nM and the IC50 under setting [2] is more than 10000 nM.

As for `O=C(NCCCCCCOc1ccc(Cl)cc1)Nc1ccc(F)c(F)c1` [Example R41, 1-[6-(4-Chlorophenoxy)hexyl]-3-(3,4-difluorophenyl)urea], the IC50 under setting [1] was 7080 nM and the IC50 under setting [2] turned out to be 6000 nM.

As for `O=C(NCc1cccnc1)c1ccc(NCc2ccccc2-c2cccc(C(F)(F)F)c2)cc1` [Example R29, N-(Pyridin-3-ylmethyl)-4-({[3′-(trifluoromethyl)biphenyl-2-yl]methyl}amino)benzamide], the IC50 was 10300 nM under setting [1] and 25000 nM under setting [2].

As to `O=C(NCc1cccnc1)Nc1ccc(NS(=O)(=O)c2cc(C(F)(F)F)ccc2Cl)cc1` [Example R69, 2-chloro-N-(4-{[(pyridin-3-ylmethyl)carbamoyl]amino}phenyl)-5-(trifluoromethyl)benzenesulfonamide], the IC50 reads like this: under setting [1], 1.3 nM; under setting [2], more than 1000 nM.

Regarding `O=C(NCc1cccnc1)c1ccc(NC(=S)Nc2ccccc2Br)cc1` [Example R13, 4-{[(2-Bromophenyl)carbamothioyl]amino}-N-(pyridin-3-ylmethyl)benzamide], the IC50 was 1610 nM under setting [1] and more than 50000 nM under setting [2].

Consider `CC(C)c1ccccc1NCC(=O)Nc1ccc(C(=O)NCc2cccnc2)cc1` [Example R22], for which the IC50 under setting [1] turned out to be 302 nM and the IC50 under setting [2] is more than 50000 nM.

Consider `N#Cc1ccc(NC(=S)NCCCCCCOc2ccc(Cl)cc2)cc1` [Example R35, 1-[6-(4-Chlorophenoxy)hexyl]-3-(4-cyanophenyl)thiourea], for which the IC50 runs as follows: under setting [1], 1530 nM; under setting [2], 2000 nM.

In the case of `O=C(NCc1ccc(NS(=O)(=O)c2ccccc2-c2ccccc2)cc1)Nc1ccncc1` [Example R65, N-(4-{[(pyridin-4-ylcarbamoyl)amino]methyl}phenyl)biphenyl-2-sulfonamide], the IC50 under setting [1] is 0.5 nM and the IC50 under setting [2] was more than 1000 nM.

As to `O=C(Nc1ccc(C(=O)NCc2cccnc2)cc1)Nc1ccc(Cl)c(Cl)c1` [Example R12, 4-{[(3,4-Dichlorophenyl)carbamoyl]amino}-N-(pyridin-3-ylmethyl)benzamide], the IC50 was determined as 9640 nM under setting [1] and 24800 nM under setting [2].

As to `C#CCN(Cc1ccc2nc(C)n(C)c(=O)c2c1)c1ccc(C(=O)NCc2cccnc2)cc1` [Example R47, 4-{[(2,3-Dimethyl-4-oxo-3,4-dihydroquinazolin-6-yl)methyl](prop-2-yn-1-yl)amino}-N-(pyridin-3-ylmethyl)benzamide], the IC50 by setting is: under setting [1], 33.5 nM; under setting [2], more than 10000 nM.

On to `O=C(NCc1cccnc1)Nc1ccc(NCc2ccccc2Cl)cc1` [Example R31, 1-{4-[(2-Chlorobenzyl)amino]phenyl}-3-(pyridin-3-ylmethyl)urea], for which the IC50 reads like this: under setting [1], 1270 nM; under setting [2], more than 50000 nM.

Turning to `O=C(NCc1cccnc1)Nc1ccc(OCc2ccccc2-c2ccccc2)cc1` [Example R77, 1-[4-(biphenyl-2-ylmethoxy)phenyl]-3-(pyridin-3-ylmethyl)urea], the IC50 by setting is: under setting [1], 1.7 nM; under setting [2], more than 5000 nM.

For the compound `O=C(NCc1cccnc1)Nc1ccc(NS(=O)(=O)c2ccc(F)cc2Br)cc1` [Example R62, 2-bromo-4-fluoro-N-(4-{[(pyridin-3-ylmethyl)carbamoyl]amino}phenyl)benzene-sulfonamide], the IC50 by setting is: under setting [1], 12.9 nM; under setting [2], more than 1000 nM.

In the case of `O=C(NCc1cccnc1)c1ccc(NNc2ccc(C(=O)NCc3cccnc3)cc2)cc1` [Example R7, 4,4′-Hydrazine-1,2-diylbis[N-(pyridin-3-ylmethyl)benzamide]], the IC50 by setting is: under setting [1], 8.8 nM; under setting [2], 22000 nM.

Consider `O=C(NCc1cccnc1)Nc1ccc(NS(=O)(=O)c2ccccc2-c2ccccc2)nc1` [Example R90, N-(5-{[(Pyridin-3-ylmethyl)carbamoyl]amino}pyridin-2-yl)biphenyl-2-sulfonamide], for which the IC50 is, setting by setting: under setting [1], 28.7 nM; under setting [2], more than 5000 nM.

Take `O=C(NCc1ccc(NS(=O)(=O)c2cc(C(F)(F)F)ccc2Br)cc1)Nc1ccncc1` [Example R73, 2-bromo-N-(4-{[(pyridin-4-ylcarbamoyl)amino]methyl}phenyl)-5-(trifluoromethyl)benzenesulfonamide]: the IC50 by setting is: under setting [1], 1 nM; under setting [2], more than 5000 nM.
